Measurements taken from patent publication US6716866B2, “Aryl-benzimidazole compounds having antiinfective activity” (GeneSoft Pharmaceuticals, Inc., priority 2001, dated 2004).

Assays:
Assay type in all cases: cell-based
[1] = system: S. epidermis ATCC 12228; test: MIC against drug-resistant bacteria, S. epidermis ATCC 12228; conditions: organism D = S. epidermis ATCC 12228, methycillin resistant strain (MRSE)
Method: (§1) Compounds according to this invention were screened for their in vitro activities against selected species of bacteria and fungi. The minimal inhibition concentration (MIC) of these compounds was determined using the National Committee for Clinical Laboratory Standards (NCCLS) broth microdilution assay in microtiter plates, as set forth in: (1) the guidelines of the National Committee for Clinical Laboratory Standards (NCCLS) Document M7-A4 (NCCLS, 1997); (2) the guidelines of the National Committee for Clinical Laboratory Standards (NCCLS) Document M11-A4 (NCCLS, 1997); and (3) the guidelines and reference method of the National Committee for Clinical Laboratory Standards (NCCLS) Document M27-T (NCCLS, 1995). For antifungal essays, the method recommended in Murray, PR., 1995 Manual of Clinical Microbiology (ASM Press, Washington, D.C.), was employed.
(§2) Further, compounds (I) are effective against drug-resistant bacteria, as evidenced by the data in Table 2 below:
(§3) ATCC 27660 and ATCC 33591 are methycillin resistant strains of S. aureus (MRSA's). ATCC 51559 is a vancomycin resistant strain of E. faecium (VRE). ATCC 12228 is a methycillin resistant strain of S. epidermis (MRSE). ATCC 51422 is a penicillin resistant strain of S. pneumoniae.

[2] = system: E. faecium ATCC 51559; test: MIC against drug-resistant bacteria, E. faecium ATCC 51559; conditions: organism A = E. faecium ATCC 51559, vancomycin resistant strain (VRE)
Method: as §1, §2, §3

[3] = system: S. pneumoniae ATCC 51422; test: MIC against drug-resistant bacteria, S. pneumoniae ATCC 51422; conditions: organism E = S. pneumoniae ATCC 51422, penicillin resistant strain
Method: as §1, §2, §3

[4] = system: S. aureus ATCC 27660; test: MIC against drug-resistant bacteria, S. aureus ATCC 27660; conditions: organism B = S. aureus ATCC 27660, methycillin resistant strain (MRSA)
Method: as §1, §2, §3

[5] = system: S. aureus ATCC 33591; test: MIC against drug-resistant bacteria, S. aureus ATCC 33591; conditions: organism C = S. aureus ATCC 33591, methycillin resistant strain (MRSA)
Method: as §1, §2, §3

Measured: Minimum Inhibitoty Concentration (MIC)

C[C@@H]1CN(CCNC(=O)c2ccc3nc(-c4cc(NC(=O)c5cc(NC(=O)c6cc7ccccc7cn6)cn5C)cn4C)[nH]c3c2)C[C@H](C)O1 [Compound I-29]
+++ (MIC ≦4): all assays above

Cn1cc(NC(=O)c2ccc3nc(-c4cc(NC(=O)c5cc6ccccc6cn5)cn4C)[nH]c3c2)cc1C(=O)NCCN1CCOCC1 [Compound I-31]
+++ (MIC ≦4): all assays above

Cn1cc(NC(=O)c2cc3ccccc3cn2)cc1C(=O)Nc1cc(-c2nc3ccc(C(=O)NCCN4CCC(O)CC4)cc3[nH]2)n(C)c1 [Compound I-32]
+++ (MIC ≦4): all assays above

CN(C)CCCNC(=O)c1ccc2nc(-c3cc(NC(=O)c4cc(NC(=O)c5cc6ccccc6cn5)cn4C)cn3C)[nH]c2c1 [Compound I-33]
+++ (MIC ≦4): all assays above

Cn1cc(NC(=O)c2ccc3nc(-c4cc(NC(=O)c5ccc(F)cc5F)cn4C)[nH]c3c2)cc1C(=O)NCCN1CCCCC1 [Compound I-35]
+++ (MIC ≦4): all assays above

Cn1cc(NC(=O)c2sccc2Cl)cc1C(=O)Nc1cc(-c2nc3ccc(C(=O)NCCN4CCCCC4)cc3[nH]2)n(C)c1 [Compound I-36]
+++ (MIC ≦4): all assays above

Cn1cc(NC(=O)c2sccc2Cl)cc1C(=O)Nc1cc(-c2nc3ccc(C(=O)NCCN4CCSCC4)cc3[nH]2)n(C)c1 [Compound I-38]
+++ (MIC ≦4): all assays above

Cn1cc(NC(=O)c2ccc3nc(-c4cc(NC(=O)c5ccc(F)cc5F)cn4C)[nH]c3c2)cc1C(=O)NCCN1CCOCC1 [Compound I-39]
+++ (MIC ≦4): all assays above

CCN(CC)CCNC(=O)c1ccc2nc(-c3cc(NC(=O)c4cc(NC(=O)c5sccc5Cl)cn4C)cn3C)[nH]c2c1 [Compound I-40]
+++ (MIC ≦4): all assays above
